Active and inactive are the calls of the source. The rule behind the calls is not given here.
Legend:
KBv200 [1] = assay: Inhibition of cell proliferation in human KBv200 cells assessed as inhibition of VNR at 10 uM incubated for 72 hrs in presence of VNR by SRB assay relative to control; assay type: functional
KBv200 [2] = assay: Reversal fold, ratio of ADR IC50 to ADR IC50 in presence of test compound for reversal effect on P-gp-mediated multidrug resistance in human KBv200 cells incubated for 72 hrs by SRB assay; assay type: functional
KBv200 [3] = assay: Inhibition of ADR uptake in human KBv200 cells at 10 uM incubated for 10 mins by flow cytometry; assay type: functional, cell-based
KBv200 [4] = assay: Cytotoxicity against human KBv200 cells at 10 uM incubated for 72 hrs by SRB assay relative to control; assay type: functional
[5] = Inhibition of ADR efflux in human KBv200 cells assessed as ADR accumulation at 10 uM incubated for 3 hrs by flow cytometry (reference value: 25.7 %); assay type: functional; design: scale not given: the % may be the effect or the level left
[6] = target: T1, Broad substrate specificity ATP-binding cassette transporter ABCG2 (Homo sapiens, UniProt Q9UNQ0); assay: Inhibition of BCRP (unknown origin) expressed in HEK293 cells assessed as increase in mitoxantrone accumulation by flow cytometry; assay type: cell-based
T1 sequence (Q9UNQ0 whole entry): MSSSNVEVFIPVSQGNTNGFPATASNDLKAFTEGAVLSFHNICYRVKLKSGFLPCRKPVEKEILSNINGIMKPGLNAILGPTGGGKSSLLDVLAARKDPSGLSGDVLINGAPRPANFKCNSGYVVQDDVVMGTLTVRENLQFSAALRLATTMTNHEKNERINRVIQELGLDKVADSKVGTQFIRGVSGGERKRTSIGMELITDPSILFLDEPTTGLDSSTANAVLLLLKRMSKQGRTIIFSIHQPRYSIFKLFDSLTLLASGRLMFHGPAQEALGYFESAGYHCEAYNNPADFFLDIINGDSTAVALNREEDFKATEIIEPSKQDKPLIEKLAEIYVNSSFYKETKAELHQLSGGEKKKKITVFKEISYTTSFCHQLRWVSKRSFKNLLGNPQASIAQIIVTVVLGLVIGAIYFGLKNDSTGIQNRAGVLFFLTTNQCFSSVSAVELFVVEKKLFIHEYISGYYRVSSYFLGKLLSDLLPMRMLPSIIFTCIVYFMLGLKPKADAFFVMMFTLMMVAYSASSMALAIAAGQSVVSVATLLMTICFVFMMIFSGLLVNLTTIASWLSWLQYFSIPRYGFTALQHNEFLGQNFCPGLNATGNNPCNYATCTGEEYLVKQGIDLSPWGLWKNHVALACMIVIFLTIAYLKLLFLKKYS

[7] = Inhibition of ADR efflux in human KBv200 cells assessed as ADR accumulation at 1 uM incubated for 3 hrs by flow cytometry (reference value: 25.7 %); assay type: functional; design: scale not given: the % may be the effect or the level left
KBv200 [8] = assay: Reversal fold, ratio of VNR IC50 to VNR IC50 in presence of test compound for reversal effect on P-gp-mediated multidrug resistance in human KBv200 cells incubated for 72 hrs by SRB assay; assay type: functional
NCI/ADR-RES [9] = assay: Reversal fold, ratio of VNR IC50 to VNR IC50 in presence of test compound for reversal effect on P-gp-mediated multidrug resistance in human NCI/ADR-RES cells incubated for 72 hrs by SRB assay; assay type: functional
[10] = target: Multidrug resistance-associated protein 1 (Homo sapiens, UniProt P33527); assay: Inhibition of MRP1 (unknown origin) expressed in HEK293 cells assessed as increase in mitoxantrone accumulation by flow cytometry; assay type: cell-based
Chain of Multidrug resistance-associated protein 1 (P33527 whole entry): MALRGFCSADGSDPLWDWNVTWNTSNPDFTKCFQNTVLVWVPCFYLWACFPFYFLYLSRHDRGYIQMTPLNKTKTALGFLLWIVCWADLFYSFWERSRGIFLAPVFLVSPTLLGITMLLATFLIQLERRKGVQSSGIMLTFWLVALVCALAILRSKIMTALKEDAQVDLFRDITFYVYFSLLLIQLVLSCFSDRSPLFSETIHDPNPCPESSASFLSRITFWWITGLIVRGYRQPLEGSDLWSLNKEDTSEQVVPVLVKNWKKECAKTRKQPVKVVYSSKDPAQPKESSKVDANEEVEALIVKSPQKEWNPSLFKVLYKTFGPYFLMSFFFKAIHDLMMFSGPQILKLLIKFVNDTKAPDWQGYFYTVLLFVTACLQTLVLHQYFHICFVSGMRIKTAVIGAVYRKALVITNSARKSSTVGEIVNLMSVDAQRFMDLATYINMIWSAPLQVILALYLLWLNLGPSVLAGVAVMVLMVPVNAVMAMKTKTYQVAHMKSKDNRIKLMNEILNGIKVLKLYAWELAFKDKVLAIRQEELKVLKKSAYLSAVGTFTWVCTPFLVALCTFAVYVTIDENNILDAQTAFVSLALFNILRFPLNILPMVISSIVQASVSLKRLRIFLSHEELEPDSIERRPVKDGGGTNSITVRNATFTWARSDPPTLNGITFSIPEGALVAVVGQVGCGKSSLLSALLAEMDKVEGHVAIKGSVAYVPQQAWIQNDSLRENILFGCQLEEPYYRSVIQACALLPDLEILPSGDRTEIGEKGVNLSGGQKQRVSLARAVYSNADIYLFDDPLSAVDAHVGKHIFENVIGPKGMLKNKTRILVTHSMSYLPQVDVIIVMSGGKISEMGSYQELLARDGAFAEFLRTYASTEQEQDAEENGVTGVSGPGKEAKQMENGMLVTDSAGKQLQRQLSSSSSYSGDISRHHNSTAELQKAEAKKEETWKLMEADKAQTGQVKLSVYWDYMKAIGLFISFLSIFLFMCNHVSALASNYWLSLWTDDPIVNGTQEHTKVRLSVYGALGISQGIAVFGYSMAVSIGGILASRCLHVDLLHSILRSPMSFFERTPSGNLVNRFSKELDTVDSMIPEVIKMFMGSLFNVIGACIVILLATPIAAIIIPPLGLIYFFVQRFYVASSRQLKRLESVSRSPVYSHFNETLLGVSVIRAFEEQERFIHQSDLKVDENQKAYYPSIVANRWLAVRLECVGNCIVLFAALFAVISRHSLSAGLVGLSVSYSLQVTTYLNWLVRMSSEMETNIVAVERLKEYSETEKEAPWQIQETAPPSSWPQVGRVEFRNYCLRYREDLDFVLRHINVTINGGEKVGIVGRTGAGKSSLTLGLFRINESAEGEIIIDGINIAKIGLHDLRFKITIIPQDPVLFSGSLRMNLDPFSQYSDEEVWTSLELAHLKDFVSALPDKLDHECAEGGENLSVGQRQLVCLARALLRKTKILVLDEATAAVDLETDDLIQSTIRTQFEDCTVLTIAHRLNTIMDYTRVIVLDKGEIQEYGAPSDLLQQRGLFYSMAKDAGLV

NCI/ADR-RES [11] = assay: Reversal fold, ratio of PTX IC50 to PTX IC50 in presence of test compound for reversal effect on P-gp-mediated multidrug resistance in human NCI/ADR-RES cells incubated for 72 hrs by SRB assay; assay type: functional
KBv200 [12] = assay: Inhibition of ADR efflux in human KBv200 cells incubated for 3 hrs by fluorescence microscopy; assay type: functional, cell-based
KBv200 [13] = assay: Inhibition of calcein AM uptake in human KBv200 cells at 10 uM incubated for 10 mins by flow cytometry; assay type: functional, cell-based
[14] = Inhibition of ADR uptake in human KBv200 cells assessed as ADR accumulation at 1 uM incubated for 10 mins by flow cytometry (reference value: 6.2 %); assay type: functional; design: scale not given: the % may be the effect or the level left
KBv200 [15] = assay: Reversal fold, ratio of VNR IC50 to VNR IC50 in presence of test compound for human KBv200 cells incubated for 72 hrs by SRB assay; assay type: functional
KBv200 [16] = assay: Inhibition of Rho-123 uptake in human KBv200 cells at 10 uM incubated for 10 mins by flow cytometry; assay type: functional, cell-based
KBv200 [17] = assay: Reversal fold, ratio of PTX IC50 to PTX IC50 in presence of test compound for reversal effect on P-gp-mediated multidrug resistance in human KBv200 cells incubated for 72 hrs by SRB assay; assay type: functional
NCI/ADR-RES [18] = assay: Reversal fold, ratio of ADR IC50 to ADR IC50 in presence of test compound for reversal effect on P-gp-mediated multidrug resistance in human NCI/ADR-RES cells incubated for 72 hrs by SRB assay; assay type: functional
[19] = Inhibition of ADR uptake in human KBv200 cells assessed as ADR accumulation at 10 uM incubated for 10 mins by flow cytometry (reference value: 6.2 %); assay type: functional; design: scale not given: the % may be the effect or the level left
KBv200 [20] = assay: Effect on P-gp level in human KBv200 cells incubated for 24 hrs by qRT-PCR analysis; assay type: functional, cell-based
KBv200 [21] = assay: Inhibition of ADR uptake in human KBv200 cells at 10 uM incubated for 10 mins by fluorescence microscopy; assay type: functional, cell-based

CC[C@H](C)C1OC(=O)[C@H](C(C)C)NC(=O)CCCCCCC[C@H](O)[C@@H](C)C[C@@H]1C (stereo partly specified)
inhibition at 10 µM (KBv200 [1]): 99.5%
Ratio IC50 (KBv200 [2]): 12.4
inhibition (KBv200 [3]): inactive
Activity (KBv200 [4]): 9.7%
Activity [5]: 90.6%
inhibition (INH) [6]: Active
Activity [7]: 29%
Ratio IC50 (KBv200 [8]): 64
Ratio IC50 (NCI/ADR-RES [9]): 65.3
inhibition (INH) [10]: Active
Ratio IC50 (NCI/ADR-RES [11]): 109.2
inhibition (KBv200 [12]): Active
inhibition (KBv200 [13]): Active
Activity [14]: 7.4%
Ratio IC50 (KBv200 [15]): 85
inhibition (KBv200 [16]): Active
Ratio IC50 (KBv200 [17]): 49.6
Ratio IC50 (NCI/ADR-RES [18]): 23.9
Activity [19]: 91.7%
Activity (KBv200 [20]): inactive
inhibition (KBv200 [21]): inactive

From ChEMBL document CHEMBL5528088, “Design and Synthesis of Cyclolipopeptide Mimics of Dysoxylactam A and Evaluation of the Reversing Potencies against P-Glycoprotein-Mediated Multidrug Resistance” (J Med Chem, 2024)
